Consider one compound from ChEMBL document CHEMBL5537201, “Discovery of Unique Bis-Substituted Aromatic Amide Derivatives as Novel Highly Potent Antibiotics for Combating Methicillin-Resistant Staphylococcus aureus (MRSA)” (J Med Chem, 2024).

Converted amounts (≈) assume the structure as drawn. The source made the active and inactive calls. No cut-off for these calls is given here. Some results are limits rather than exact numbers.

Series [1] is described as follows: Selectivity index, ratio of HC50 for rabbit Red blood cell to MIC for Staphylococcus aureus ATCC6538. The following applies: red blood cells (erythrocytes), read-out: Selectivity Index. Type of series: toxicity.
Series [2] can be described thus: Selectivity index, ratio of IC50 for African green monkey Vero E6 cells to MIC for Staphylococcus aureus ATCC6538. Type of series: toxicity. The following applies: read-out: Selectivity Index.
Series [3] is described as follows: Cytotoxicity against human HaCaT cells assessed as reduction in cell viability measured after 24 hrs by CCK-8 method. Type of series: toxicity, cell-based.
For series [4], the system named is Staphylococcus aureus. The series is described as follows: Antimicrobial activity against methicillin resistant Staphylococcus aureus clinical isolate MRS152 assessed as reduction in bacterial growth incubated for 24 hrs by two-fold broth dilution method. Type of series: functional. On the technique in general: Broth dilution looks for growth in wells or tubes with falling amounts of substance.

Series [5] relates to Staphylococcus aureus. In words: Antibiofilm activity against Staphylococcus aureus ATCC6538 assessed as reduction in biofilm formation at 1 to 32 ug/ml incubated for 20 to 22 hrs by crystal violet staining based analysis. The following applies: dose 1-32 µg/ml, time 20-22 hrs. The class given is functional, organism-based.
The subject of series [6] is Staphylococcus aureus. The series is described as follows: Induction of membrane morphological changes in Staphylococcus aureus ATCC6538 assessed as cell membrane deformation at 5 times of MIC measured after 0.5 hrs by FE-SEM analysis. The class given is functional, organism-based.
In series [7] the test system is Cell membrane. The series is described as follows: Induction of inner membrane permeabilization in methicillin resistant Staphylococcus aureus clinical isolate MRS153 assessed as increase in blue fluorescence at 5 ug/ml by DAPI staining based analysis. Type of series: cell membranes. The following applies: dose 5.0 µg/ml.
For series [8], the system named is Cell membrane. In words: Induction of inner membrane permeabilization in Staphylococcus aureus ATCC6538 assessed as increase in […] fluorescence at 5 ug/ml by PI staining based analysis. Type of series: cell membranes. The following applies: dose 5.0 µg/ml.
For series [9], the system named is Cell membrane. In words: Induction of inner membrane permeabilization in methicillin resistant Staphylococcus aureus clinical isolate MRS153 assessed as increase in […] fluorescence at 5 ug/ml by PI staining based analysis. The class given is cell membranes. The note with it: dose 5.0 µg/ml.
Series [10] deals with Cell membrane. The series is described as follows: Induction of cytoplasmic membrane depolarization in methicillin resistant Staphylococcus aureus clinical isolate MRS153 assessed as increase in fluorescence intensity measured upto 120 mins by DiSC3(5) dye based fluorescence method. The class given is cell membranes.
In series [11] the test system is Staphylococcus aureus. The series is described as follows: Antimicrobial activity against methicillin resistant Staphylococcus aureus clinical isolate MRS153 assessed as increase in ROS levels measured upto 180 mins in presence of 2,2'-bipyridyl and thiourea by H2DCFDA probe based flow cytometry. The class given is functional, organism-based. In general terms: Flow cytometry measures light scatter and fluorescence of single cells or particles in a stream.

The nature of series [12]: Toxicity in BALB/c mouse assessed as as change in ALT level at 25 to 50 mg/kg, iv. The class given is organism-based. The note with it: in vivo, dose 25-50 mg/kg.
Series [13] deals with Staphylococcus aureus. The series is described as follows: Upregulation of multidrug efflux pump genes in Staphylococcus aureus ATCC6538 at 5 ug/ml incubated for 2 hrs by RNA sequencing analysis. Type of series: functional. The note with it: dose 5.0 µg/ml.

As usually defined, the IC50 is the point on the concentration scale where inhibition reaches its midpoint. As usually defined, the MIC is the least concentration at which growth counts as inhibited. For the compound `O=C(CCC(F)(F)F)N(Cc1cc2ccccc2s1)c1cc(-c2noc(C(F)(F)F)n2)ccc1O`, the selectivity ratio is above 1000 in [1] and above 100 in series [2]. Moreover, the half-inhibitory concentration (IC50) at 24 h in series [3] is above 25 µg/mL. In addition, the minimum inhibitory concentration (MIC) in the series on Staphylococcus aureus [4] is 1 µg/mL (≈ 1.94 µM). Moreover, the result in the series with Staphylococcus aureus [5], in the series with Staphylococcus aureus [6], in the series on Cell membrane [7], in the series with Cell membrane [8], in the series with Cell membrane [9] and in the series with Cell membrane [10] was Active. Further, in the series with Staphylococcus aureus [13], the outcome was Active. Also, in the series on Staphylococcus aureus [11], the outcome was inactive. Also, the Activity result in series [12] is “Non-Toxic”.
